Patent US10519504B2, “Methods for treatment of oncological disorders using epimetabolic shifters, multidimensional intracellular molecules, or environmental influencers” (Berg LLC, priority 2009, dated 2019)

Assays:
[1] = system: SK-MEL-28 mitochondria; conditions: human, 48 h, 100 µM
Procedure: Cells were centrifuged, pelleted, flash frozen and stored at −80° C. until the mitochondria were isolated. Cell pellets were thawed, resuspended and ruptured in Dounce homogenizer. The homogenate was centrifuged and mitochondria were isolated using reagents and the protocol recommended by the Mitochondria Isolation kit for Cultured cells (MitoSciences, Eugene Oreg., Cat #MS852). The mitochondrial fraction was aliquoted and stored at −80° C.
Analysis was by LC-MS/MS on a Waters Quattro II triple quadrupole mass spectrometer with a Prism RP 1×100 mm, 5 μm particle size column (Keystone Scientific). Isocratic elution with 4 mM ammonium formate in 20% isopropyl alcohol 80% methanol at a flow rate of 50 μl/min. Ten μl of each sample was injected.

[2] = system: HDFa cells; test: OCR and ECAR, SeaHorse XF analyzer; assay type: cell-based, human
Excerpt: (SeaHorse Biosciences Inc, North Billerica, Mass.).
In this experiment, the OCR and extracellular acidification rate (ECAR) in normal cells lines were obtained in the presence and absence of CoQ10 to determine baseline values. It was observed that in its native nutrient environment, the basal OCR rates in normal cells lines are different, and are usually a function of the physiological roles of the cells in the body. […]
Table 97 below describes the ECAR values (mpH/min) in HDFa cells in the presence or absence of CoQ10 under normoxic and hypoxic conditions at 5.5 mM and 22 mM glucose.

[3] = system: SkBr-3 cells; test: Real-time PCR Apoptosis Array; assay type: cell-based, human
Procedure: RNA was quantified by measuring Optical Density at 260 nm.
Changes in mRNA levels were evaluated using real-time PCR quantification to assess mRNA levels in pre-selected subsets containing […] pathway specific targets.
The assay method of RT-PCR was utilized to provide a measure of mRNA level changes to a total of 84 apoptotic pathway related proteins.

[4] = system: Lactate Dehydrogenase (LDH); test: Western blot, Lactate Dehydrogenase levels; assay type: cell-based, human
Procedure: The samples were processed and run on a 4-12% Bis-Tris Novex NuPAGE gel as described above. The gels were run, transferred and stained essentially as described above.
After transfer each blot was dried for 15-20 minutes, activated with methanol for 5 seconds, washed with water for 5 minutes, and TBST for 15 minutes. The blots were blocked for 1 hour with 5% blocking reagent in TBS-T at room temperature and then washed 3 times with TBS-T (1X−15′; 2X5′ each) and probed with the primary antibody for Lactate Dehydrogenase (abcam ab2101; polyclonal) in 5% BSA (at 1:1000 dilutions) by incubation overnight at 4 deg C. with shaking. After the overnight incubation with primary antibody for Lactate Dehydrogenase, the blots were washed 3 times with TBS-T (1X−15′; 2X5′ each) and probed with the secondary antibody (rabbit antigoat; 1:10,000 dilution) for 1 h at room temperature. After 1 h of incubation with secondary antibodies, the blots were washed 3 times with TBS-T (1X−15′; 2X5′ each) and then incubated with ECF reagent for 5 mins and then each blot scanned with 5100 Fuji Laser scanner at 25 uM resolution, 16 bit, green laser, at 400V and at 500 V. […]
The levels of LDH and PDH were determined by probing the blots successively with primary antibodies for LDH and PDH, essentially as described above. […]

Structure (SMILES): COC1=C(OC)C(=O)C(C/C=C(\C)CC/C=C(\C)CC/C=C(\C)CC/C=C(\C)CC/C=C(\C)CC/C=C(\C)CC/C=C(\C)CC/C=C(\C)CC/C=C(\C)CCC=C(C)C)=C(C)C1=O [Q10, Coenzyme Q10]
- Q10H2 [1]: 0.28 ng/Sample
- increase in the levels of Q10H2 [1]: 3 fold
- ECAR ([2]; 50 μM, Hypoxia (5.5 mM) glucose): 5 mpH/min
- ECAR ([2]; 50 μM, Hypoxia (22 mM) glucose): 6 mpH/min
- ECAR ([2]; 50 μM, Normoxia (5.5 mM) glucose): 6 mpH/min
- ECAR ([2]; 50 μM, Normoxia (22 mM) glucose): 5 mpH/min
- ECAR ([2]; 100 μM, Hypoxia (5.5 mM) glucose): 5 mpH/min
- ECAR ([2]; 100 μM, Hypoxia (22 mM) glucose): 8 mpH/min
- ECAR ([2]; 100 μM, Normoxia (5.5 mM) glucose): 6 mpH/min
- ECAR ([2]; 100 μM, Normoxia (22 mM) glucose): 5 mpH/min
- ECAR ([2]; HDFa, high glucose hypoxic conditions): lowering of elevated ECAR to a value that was observed in untreated normoxic conditions
- ECAR values ([2]; HDFa, normoxic and hypoxic, 5.5 mM and 22 mM glucose): minimal influence on ECAR values
- mRNAs Bcl2, Bcl2L1, Bcl2L11, Birc6, Bax, Xiap, Hprt1, Apaf1, Abl1, Braf ([3]; SkBr3, Q10 24 hr): affected
- Bcl-xl mRNA level ([3]; apoptosis array): significant up-regulation
- LDH expression ([4]; cancer): reduced Lactate Dehydrogenase (LDH) expression in cancer
- LDH expression ([4]; normal cells): minimal effect on normal cells
